Data: patent US20090111823A1, “AMINOPYRIDINE DERIVATIVES AS MODULATORS OF MGLUR5” (AstraZeneca AB, priority 2007, published 2009)

Experiments:
[1] = molecular target: T1, human mGluR5d (Homo sapiens, UniProt P41594); assay: FLIPR assay, mobilization of intracellular calcium in cells expressing human mGluR5d; type: cell-based; conditions: antagonism, read-out: FLIPR hmGluR5d
T1 construct: expressed in transfected cells; The separate IP3 assay uses GHEK cells stably expressing human mGluR5d
From the text: Functional Assessment of mGluR5 Antagonism in Cell Lines Expressing mGluR 5D
The properties of the compounds of the invention can be analyzed using standard assays for pharmacological activity. Examples of glutamate receptor assays are well known in the art as described in for example Aramori et al, Neuron 8:757 (1992), Tanabe et al., Neuron 8:169 (1992), Miller et al., J. Neuroscience 15: 6103 (1995), Balazs, et al., J. Neurochemistry 69:151 (1997). The methodology described in these publications is incorporated herein by reference. Conveniently, the compounds of the invention can be studied by means of an assay (FLIPR) that measures the mobilization of intracellular calcium, [Ca^2+]i in cells expressing mGluR5 or another assay (IP3) that measures inositol phosphate turnover.
Cells expressing human mGluR5d as described in WO97/05252 cultured in a mixture of high glucose DMEM with Glutamax (31966-021)(500 mL), 10% dialyzed fetal bovine serum (Hyclone #SH30079.03)(56 mL), 200 μg/mL Hygromycin B (Invitrogen 45-0430, 50 mg/mL)(2.2 mL), 200 μg/mL Zeocin (invitrogen #R250-01; 100 mg/mL)(1.1 mL) are seeded at a density of 100,000 cells per well on collagen coated clear bottom 96-well plates with black sides and cells were allowed to adhere over night before experiments. All assays are done in a buffer containing 146 mM NaCl, 5 mM KCl, 1 mM MgCl2, 1 mM CaCl2, 20 mM HEPES, 1 mg/mL glucose and 1 mg/mL BSA Fraction IV (pH 7.4). Cell cultures in the 96-well plates are loaded for 60 minutes in the above mentioned buffer containing 6 μM of the acetoxymethyl ester form of the fluorescent calcium indicator fluo-3 (Molecular Probes, Eugene, Oreg.) in 0.025% pluronic acid (a proprietary, non-ionic surfactant polyol—CAS Number 9003-11-6). […] The fluorescence signal is sampled 50 times at 1-second intervals followed by 3 samples at 5-second intervals immediately after each of the two additions. Responses are measured as the difference between the peak heights of the response to agonist, less the background fluorescence within the sample period. […]

[2] = Determination of brain to plasma ratio in rat; type: in vivo; conditions: female Sprague Dawley rats, read-out: Brain/Plasma Ratio of compound in Rat
Description: Brain to plasma ratios are estimated in female Sprague Dawley rats. The compound is dissolved in water or another appropriate vehicle. For determination of brain to plasma ratio the compound is administrated as a subcutaneous, or an intravenous bolus injection, or an intravenous infusion, or an oral administration. At a predetermined time point after the administration a blood sample is taken with cardiac puncture. The rat is terminated by cutting the heart open, and the brain is immediately retained. The blood samples are collected in heparinized tubes and centrifuged within 30 minutes, in order to separate the plasma from the blood cells. The plasma is transferred to 96-well plates and stored at −20° C. until analysis. The brains are divided in half, and each half is placed in a pre-tarred tube and stored at −20° C. until analysis. Prior to the analysis, the brain samples are thawed and 3 mL/g brain tissue of distilled water is added to the tubes. The brain samples are sonicated in an ice bath until the samples are homogenized. Both brain and plasma samples are precipitated with acetonitrile. After centrifugation, the supernatant is diluted with 0.2% formic acid. Analysis is performed on a short reversed-phase HPLC column with rapid gradient elution and MSMS detection using a triple quadrupole instrument with electrospray ionisation and Selected Reaction Monitoring (SRM) acquisition. Liquid-liquid extraction may be used as an alternative sample clean-tip. The samples are extracted, by shaking, to an organic solvent after addition of a suitable buffer. An aliquot of the organic layer is transferred to a new vial and evaporated to dryness under a stream of nitrogen. After reconstitution of the residuals the samples are ready for injection onto the HPLC column.

T1 sequence (P41594 21-942 isoform P41594-3 limits assumed): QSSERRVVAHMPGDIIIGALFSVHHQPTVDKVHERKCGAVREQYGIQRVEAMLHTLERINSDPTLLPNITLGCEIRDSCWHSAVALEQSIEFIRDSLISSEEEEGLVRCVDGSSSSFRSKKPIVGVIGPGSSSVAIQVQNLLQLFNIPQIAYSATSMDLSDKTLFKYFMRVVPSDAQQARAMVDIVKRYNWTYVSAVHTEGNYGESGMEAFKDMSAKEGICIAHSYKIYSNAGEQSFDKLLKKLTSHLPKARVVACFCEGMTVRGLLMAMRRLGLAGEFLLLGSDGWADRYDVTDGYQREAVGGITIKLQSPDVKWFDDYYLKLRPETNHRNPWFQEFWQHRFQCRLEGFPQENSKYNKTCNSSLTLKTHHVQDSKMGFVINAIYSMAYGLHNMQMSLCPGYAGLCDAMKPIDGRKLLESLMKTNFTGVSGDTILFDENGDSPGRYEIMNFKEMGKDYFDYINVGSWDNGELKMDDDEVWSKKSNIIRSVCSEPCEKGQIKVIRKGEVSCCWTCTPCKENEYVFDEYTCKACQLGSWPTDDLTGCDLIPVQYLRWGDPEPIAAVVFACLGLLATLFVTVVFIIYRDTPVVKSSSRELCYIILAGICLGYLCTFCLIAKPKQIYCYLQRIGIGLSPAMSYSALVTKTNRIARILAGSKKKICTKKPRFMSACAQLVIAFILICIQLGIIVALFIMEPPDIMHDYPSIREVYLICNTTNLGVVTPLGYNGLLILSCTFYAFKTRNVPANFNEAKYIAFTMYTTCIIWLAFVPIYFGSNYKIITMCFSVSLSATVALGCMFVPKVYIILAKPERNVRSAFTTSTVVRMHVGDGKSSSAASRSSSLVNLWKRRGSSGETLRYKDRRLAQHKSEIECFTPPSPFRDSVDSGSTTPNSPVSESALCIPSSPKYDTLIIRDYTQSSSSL

Structure (SMILES)	IC50 [1]	Kp [2]
Cn1c(-c2ccc(N)nc2)nnc1N1CCCC1c1cc(-c2ccccc2)on1 (stereo in doubt) [Example 5.3, 5-{4-Methyl-5-[(2R)-2-(5-phenylisoxazole-3-yl)pyrrolidin-1-yl]-4H-1,2,4-triazol-3-yl}pyridin-2-amine]	34 nM	< 0.01
CN(C)c1ccc(-c2nnc(N3CCC[C@@H]3c3cc(-c4cccc(Cl)c4)on3)n2C)cn1 [Example 5.1, 5-(5-{(2R)-2-[5-(3-Chlorophenyl)isoxazol-3-yl]pyrrolidin-1-yl}-4-methyl-4H-1,2,4-triazol-3-yl)-N,N-dimethylpyridin-2-amine]	39 nM	0.285
Cn1c(-c2ccc(N)nc2)nnc1N1CCC[C@@H]1c1cc(-c2cccc(Cl)c2)on1 [Example 5.2, 5-(5-{(2R)-2-[5-(3-Chlorophenyl)isoxazol-3-yl]pyrrolidin-1-yl}-4-methyl-4H-1,2,4-triazol-3-yl)pyridin-2-amine]	< 3 nM	0.085
